Read-outs that look alike come from different tables or passages of the source. *1 amine or outer side, *2 acyl side, *3 side chain or, on linkers, in order; H or OH if unused. Where a SMILES comes first, the peptide text is derived from it. Bridges are numbered along the chain shown (N, C = ends). [ ]: non-standard residue; d: D form. The star is where a group is joined. hPhe(3,5-F2-4-CF3) = N[C@@H](CCc1cc(F)c(C(F)(F)F)c(F)c1)C(=O)O; hPhe(3-Cl-4-CF3) = N[C@@H](CCc1ccc(C(F)(F)F)c(Cl)c1)C(=O)O; NPrPhe(4-CF3) = CCCN[C@@H](Cc1ccc(C(F)(F)F)cc1)C(=O)O; NMeGly(cPent) = CN[C@H](C(=O)O)C1CCCC1; NMeD = CN[C@@H](CC(=O)O)C(=O)O; X1 = O=C(CN(CC(F)F)[*:1])[*:2]; NMeL = CN[C@@H](CC(C)C)C(=O)O; αMeL = CC(C)C[C@](C)(N)C(=O)O; αMeV = CC(C)[C@](C)(N)C(=O)O; αMeS = C[C@](N)(CO)C(=O)O; Morpholide = C1CN(*)CCO1; Ac5c = NC1(C(=O)O)CCCC1; Sar = CNCC(=O)O; tBu = CC(C)(C)*
Key:
[1] = molecular target: GDP-bound NRAS wild-type protein (Homo sapiens, UniProt P01111); experiment: Binding to NRAS by surface plasmon resonance (SPR), Single Cycle Kinetics; conditions: SPR, GDP-bound NRAS wild-type protein vs GDP-bound KRAS wild-type protein
Sequence of GDP-bound NRAS wild-type protein (P01111 whole entry): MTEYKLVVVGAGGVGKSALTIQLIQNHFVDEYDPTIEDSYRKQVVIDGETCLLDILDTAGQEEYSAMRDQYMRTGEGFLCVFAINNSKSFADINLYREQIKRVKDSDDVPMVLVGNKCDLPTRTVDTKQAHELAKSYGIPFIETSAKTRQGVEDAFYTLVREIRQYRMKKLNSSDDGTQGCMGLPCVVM

[2] = molecular target: GDP-bound KRAS wild-type protein (Homo sapiens, UniProt P01116); experiment: Binding to KRAS by surface plasmon resonance (SPR), Single Cycle Kinetics; conditions: GDP-bound KRAS wild-type protein, read-out: KRAS KD
Sequence of GDP-bound KRAS wild-type protein (P01116 whole entry): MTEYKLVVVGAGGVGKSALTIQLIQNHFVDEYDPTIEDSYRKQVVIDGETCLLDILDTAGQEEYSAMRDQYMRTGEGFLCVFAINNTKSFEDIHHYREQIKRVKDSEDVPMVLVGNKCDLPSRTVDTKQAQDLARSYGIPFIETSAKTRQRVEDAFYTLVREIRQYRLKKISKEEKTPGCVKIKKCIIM

[3] = system: human lung cancer strain NCI-H441;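 also: cell proliferation inhibition after four days measured by CellTiter-Glo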
[4] = molecular target: GDP-bound HRAS wild-type protein (Homo sapiens, UniProt P01112); experiment: Binding to HRAS by surface plasmon resonance (SPR), Single Cycle Kinetics; conditions: SPR, GDP-bound HRAS wild-type protein vs GDP-bound KRAS wild-type protein
Sequence of GDP-bound HRAS wild-type protein (P01112 whole entry): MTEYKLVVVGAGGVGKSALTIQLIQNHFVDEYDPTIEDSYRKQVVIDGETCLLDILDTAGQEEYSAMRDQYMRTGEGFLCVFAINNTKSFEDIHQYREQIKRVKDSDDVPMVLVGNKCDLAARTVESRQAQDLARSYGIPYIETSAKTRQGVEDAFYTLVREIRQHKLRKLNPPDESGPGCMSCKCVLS

[5] = SPR Single Cycle Kinetics, 1:1 binding model

Row | SMILES | NRAS/KRAS (ratio of KD value with respect to NRAS to KD value with respect to KRAS) [1] | Kd [2, 5] [nM] | IC50 [3] [nM] | HRAS/KRAS (ratio of KD value with respect to HRAS to KD value with respect to KRAS) [4] | NRAS/KRAS (ratio of KD value for NRAS to KD value for KRAS) [1] | Kd ([2]; SPR, Single Cycle Kinetics) [nM] | HRAS/KRAS (ratio of KD value for HRAS to KD value for KRAS) [4]
1 | CCO[C@@H]1C[C@H]2C(=O)NC3(CCC3)C(=O)N(C)[C@@H](C3CCCC3)C(=O)N(CCc3ccccc3)[C@H](C(=O)N3CCOCC3)CC(=O)N(C)[C@@H](CC(C)C)C(=O)N[C@@H]([C@@H](C)CC)C(=O)N(C)CC(=O)N(C)[C@H]3CCCCN(C3=O)[C@@H](Cc3ccc(C(F)(F)F)cc3)C(=O)N(C)CC(=O)N[C@@H](CCc3cc(F)c(C(F)(F)F)c(F)c3)C(=O)N2C1 [PP0652] | B (a compound having 3 or more and less than 10 is denoted as B) | 2.5 | 208 | B (a compound having 3 or more and less than 10 is denoted as B) | – | – | –
2 | CCO[C@@H]1C[C@H]2C(=O)NC3(CCC3)C(=O)N(C)[C@@H](C3CCCC3)C(=O)N(C)[C@H](C(=O)N3CCOCC3)CC(=O)N(C)C(C)(C)C(=O)N[C@@H]([C@@H](C)CC)C(=O)N(C)CC(=O)N(C)[C@H]3CCCCN(C3=O)[C@@H](Cc3ccc(C(F)(F)F)cc3)C(=O)N(C)CC(=O)N[C@@H](CCc3cc(F)c(C(F)(F)F)c(F)c3)C(=O)N2C1 [PP0722] | C (A compound having a KD ratio of 0.1 or more and less than 3 is denoted as C) | 25 | 2600 | B (a compound having 3 or more and less than 10 is denoted as B) | – | – | –
3 | CCO[C@@H]1C[C@H]2C(=O)NC3(CC=CC3)C(=O)N(C)[C@@H](C3CCCC3)C(=O)N(C)[C@H](C(=O)N(C)C)CC(=O)N(C)[C@@H](C)C(=O)N[C@@H]([C@@H](C)CC)C(=O)N(C)CC(=O)N(C)[C@H]3CCCCCN(C3=O)[C@@H](Cc3ccc(C(F)(F)F)cc3)C(=O)N(C)CC(=O)N[C@@H](CCc3cc(F)c(C(F)(F)F)c(F)c3)C(=O)N2C1 [PP0724] | B (a compound having 3 or more and less than 10 is denoted as B) | 0.44 | 127 | B (a compound having 3 or more and less than 10 is denoted as B) | – | – | –
4 | CCCN1C(=O)CN(C)C(=O)CN(CC(F)F)C(=O)[C@H]([C@@H](C)CC)NC(=O)[C@H](CC(C)C)N(C)C(=O)C[C@@H](C(=O)N2CCOCC2)N(C)C(=O)[C@H](C2CCCC2)N(C)C(=O)C2(CCCC2)NC(=O)[C@@H]2CCCN2C(=O)[C@H](CCc2ccc(C(F)(F)F)c(Cl)c2)NC(=O)CN(C)C(=O)[C@@H]1Cc1ccc(C(F)(F)F)cc1 [PP0752] ([NMeL]I[X1][Sar][NPrPhe(4-CF3)][Sar][hPhe(3-Cl-4-CF3)]P[Ac5c][NMeGly(cPent)][NMeD]-Morpholide; lactam N-11) | B (a compound having 3 or more and less than 10 is denoted as B) | 0.54 | 25.8 | B (a compound having 3 or more and less than 10 is denoted as B) | – | – | –
5 | CCCN1C(=O)CN(C)C(=O)CN(C)C(=O)[C@H]([C@@H](C)CC)NC(=O)[C@H](CC(C)C)N(C)C(=O)C[C@@H](C(=O)N2CCOCC2)N(C)C(=O)[C@H](C2CCCC2)N(C)C(=O)[C@](C)(C(C)C)NC(=O)[C@@H]2CCCN2C(=O)[C@H](CCc2cc(F)c(C(F)(F)F)c(F)c2)NC(=O)CN(C)C(=O)[C@@H]1Cc1ccc(C(F)(F)F)cc1 [PP0756] ([NMeL]I[Sar][Sar][NPrPhe(4-CF3)][Sar][hPhe(3,5-F2-4-CF3)]P[αMeV][NMeGly(cPent)][NMeD]-Morpholide; lactam N-11) | B (a compound having 3 or more and less than 10 is denoted as B) | 0.87 | 69.5 | B (a compound having 3 or more and less than 10 is denoted as B) | – | – | –
6 | CCCN1C(=O)CN(C)C(=O)CN(C)C(=O)[C@H]([C@@H](C)CC)NC(=O)[C@H](CC(C)C)N(C)C(=O)C[C@@H](C(=O)N2CCOCC2)N(C)C(=O)[C@H](C2CCCC2)N(C)C(=O)[C@](C)(CC(C)C)NC(=O)[C@@H]2CCCN2C(=O)[C@H](CCc2cc(F)c(C(F)(F)F)c(F)c2)NC(=O)CN(C)C(=O)[C@@H]1Cc1ccc(C(F)(F)F)cc1 [PP0759] ([NMeL]I[Sar][Sar][NPrPhe(4-CF3)][Sar][hPhe(3,5-F2-4-CF3)]P[αMeL][NMeGly(cPent)][NMeD]-Morpholide; lactam N-11) | B (a compound having 3 or more and less than 10 is denoted as B) | 2.7 | 185 | B (a compound having 3 or more and less than 10 is denoted as B) | – | – | –
7 | CCCN1C(=O)CN(C)C(=O)CN(C)C(=O)[C@H]([C@@H](C)CC)NC(=O)[C@H](CC(C)C)N(C)C(=O)C[C@@H](C(=O)N2CCOCC2)N(C)C(=O)[C@H](C2CCCC2)N(C)C(=O)[C@](C)(COC)NC(=O)[C@@H]2CCCN2C(=O)[C@H](CCc2cc(F)c(C(F)(F)F)c(F)c2)NC(=O)CN(C)C(=O)[C@@H]1Cc1ccc(C(F)(F)F)cc1 [PP0762] ([NMeL]I[Sar][Sar][NPrPhe(4-CF3)][Sar][hPhe(3,5-F2-4-CF3)]P[αMeS](Me)[NMeGly(cPent)][NMeD]-Morpholide; lactam N-11) | B (a compound having 3 or more and less than 10 is denoted as B) | 0.73 | 30.1 | B (a compound having 3 or more and less than 10 is denoted as B) | – | – | –
8 | CCCN1C(=O)CN(C)C(=O)CN(C)C(=O)[C@H]([C@@H](C)CC)NC(=O)[C@H](CC(C)C)N(C)C(=O)C[C@@H](C(=O)N2CCOCC2)N(C)C(=O)[C@H](C2CCCC2)N(C)C(=O)[C@](C)(COC(C)(C)C)NC(=O)[C@@H]2CCCN2C(=O)[C@H](CCc2cc(F)c(C(F)(F)F)c(F)c2)NC(=O)CN(C)C(=O)[C@@H]1Cc1ccc(C(F)(F)F)cc1 [PP0764] ([NMeL]I[Sar][Sar][NPrPhe(4-CF3)][Sar][hPhe(3,5-F2-4-CF3)]P[αMeS](tBu)[NMeGly(cPent)][NMeD]-Morpholide; lactam N-11) | B (a compound having 3 or more and less than 10 is denoted as B) | 3.4 | 215 | B (a compound having 3 or more and less than 10 is denoted as B) | – | – | –
9 | CC[C@H](C)[C@@H]1NC(=O)[C@H](COC)N(C)C(=O)C[C@@H](C(=O)N2CCOCC2)N(C)C(=O)[C@H](C2CCCC2)N(C)C(=O)C2(CCC2)NC(=O)[C@@H]2CCCN2C(=O)[C@H](CCc2cc(F)c(C(F)(F)F)c(F)c2)NC(=O)CN(C)C(=O)[C@H](Cc2ccc(C(F)(F)F)cc2)N2CCCCC[C@@H](C2=O)N(C)C(=O)CNC1=O [PP0860] | – | – | 143 | – | B (a compound having 3 or more and less than 10 is denoted as B) | 1.1 | B (a compound having 3 or more and less than 10 is denoted as B)
10 | CCO[C@@H]1C[C@H]2C(=O)NC3(CCCC3)C(=O)N(C)[C@@H](C3CCCC3)C(=O)N(C)[C@H](C(=O)N3CCOCC3)CC(=O)N(C)[C@@H](COC)C(=O)N[C@@H]([C@@H](C)CC)C(=O)NCC(=O)N(C)[C@H]3CCCCCN(C3=O)[C@@H](Cc3ccc(C(F)(F)F)cc3)C(=O)N(C)CC(=O)N[C@@H](CCc3cc(F)c(C(F)(F)F)c(F)c3)C(=O)N2C1 [PP0862] | – | – | 81.1 | – | B (a compound having 3 or more and less than 10 is denoted as B) | 1.1 | B (a compound having 3 or more and less than 10 is denoted as B)

Source: US20240158446A1, “CYCLIC COMPOUND HAVING SELECTIVE INHIBITORY ACTION ON KRAS OVER HRAS AND NRAS” (CHUGAI SEIYAKU KABUSHIKI KAISHA, priority 2021, published 2024)
